Results from paper PMC7894572 (Chemmedchem, 2020).
Read-outs that look alike come from different tables or passages of the source.

Key:
in vitro = details: African green monkey
SARS‐CoV‐2 PL^pro = SARS‐CoV‐2 PL^pro (Severe acute respiratory syndrome coronavirus 2, UniProt P0DTD1); assay: biochemical; assay type: biochemical
SARS‐CoV‐2 = assay: microbe, parasite or virus in culture; assay type: cell-based
SARS‐CoV PL^pro [1] = biological target: T1, SARS‐CoV PL^pro (Severe acute respiratory syndrome coronavirus, UniProt P0C6X7); assay: biochemical; assay type: biochemical
SARS‐CoV PL^pro [2] = biological target: T1, SARS‐CoV PL^pro; details: read-out: IC50 SARS‐CoV PL^pro; cited from earlier work

SMILES: C[C@@H](NC(=O)c1ccccc1Cl)c1cccc2ccccc12 [Compound 2 i, 2‐Chloro‐N‐[(1R)‐1‐naphth‐1‐ylethyl]benzamide]
- CC50 (in vitro): 376 ± 1.36 µM
- IC50 (SARS‐CoV‐2 PL^pro): 15 ± 2 µM
- melting point: 133 °C
- SI (selectivity index) (SARS‐CoV‐2): 212
- EC50 (SARS‐CoV‐2; Severe acute respiratory syndrome coronavirus 2, Vero C1008, 24 h, read-out: EC50 inhibition of SARS‐CoV‐2 replication): 1.77 ± 1.6 µM
- IC50 (SARS‐CoV PL^pro [1]): 6.5 ± 0.8 µM

SMILES: C[C@H](c1cccc2ccccc12)N1CCC(C(=O)NCc2cccc(F)c2)CC1 [Compound 20]
- IC50 (SARS‐CoV PL^pro [2]): 0.15 µM

SMILES: CCc1ccccc1C(=O)NC(C)c1ccc2ccccc2c1 (centres unmarked) [Compound 19]
- IC50 (SARS‐CoV PL^pro [2]): > 200 µM
